# PMC6925736, “Development of a HPLC-MS/MS Method to Determine the 13 Elements of Semen Cuscutae and Application to a Pharmacokinetic Study in Rats” (Evidence-based Complementary and Alternative Medicine : eCAM, 2019)
# Experiments:
# [1] = Pharmacokinetic study in rats after oral administration of Semen Cuscutae extract (HPLC-MS/MS of plasma); assay type: in vivo, Sprague–Dawley rats; settings: oral Semen Cuscutae extract 13 g/kg; for plasma concentration after 15 minutes of intragastric administration: LLOQ 1 ng/mL
# Method: 20 μL of methanol, 20 μL of IS (liquiritin, 200 ng/mL) and 20 μL of formic acid were added to 100 μL of plasma sample and then vortex-mixed. The mixture was extracted with 800 μL of acetonitrile by vortexing for 3 min. After centrifugation at 14000 rpm for 10 min, the supernatant was transferred to a clean glass tube and dried with nitrogen. The residue was reconstituted in 100 μL of methanol and then centrifuged at 14000 rpm for 10 min. 5 μL of supernatant was injected into the LC–MS/MS system for analysis.
# Six Sprague–Dawley rats (SPF, 200 ± 10 g, male) were purchased from HFK Laboratory Animal Technology Co., Ltd. The rats were housed in a standard laboratory condition (12 h dark-light cycle; temperature was 25°C ± 2°C and humidity was kept 50 ± 5%) and fed standard dry pellet diet and water for one week for acclimatization. Before the experiments, the rats were in fasting state for 12 h, with free access to water. The Semen Cuscutae extracts were dissolved in 0.5% carboxymethyl cellulose-sodium, prepared into suspension and gavage to the rats at a dose of 13 g/kg. Approximately 200 μL of rat blood samples was collected from the orbital venous plexus at 0, 0.03, 0.08, 0.17, 0.25, 0.5, 1, 2, 4, 6, 8, 10, 12, 24, 36, and 48 h after oral administration into 1.5 mL heparinized centrifuge tube. After centrifugation at 7000 rpm for 10 min immediately, the supernatant was collected into a new centrifuge tube and stored at −70°C until analysis.
# Pharmacokinetic parameters (Cmax, t1/2, Tmax, AUC(0-tn), and AUC(0-∞)) were obtained using the software “Drug and Statistics 3.0” (DAS 3.0) (Medical College of Wannan, China).
# [2] = Stability of analytes in rat plasma QC samples under processing and storage conditions; assay type: in vitro ADME; settings: n = 6; for Measured concentration, room temperature for 4h / Measured concentration, three freeze-thaw / Measured concentration, −70°C for 21 days: rat plasma; for Measured concentration, autosampler for 12h: treated rat plasma sample
# Method: The stability of the 13 analytes was evaluated by QC samples in different processing and storage conditions, including short-term stability (putting the analytes in ambient temperature for 4 h and storing analytes in autosampler for 12 h after treatment), long-term stability (storing the analytes at −70°C for 21 days) and subjecting analytes to three freeze-thaw cycles. All stability experiments were tested in six parallels with low, middle, and high concentrations.
# [3] = male, Sprague-Dawley, rat, plasma, po, 13 g/kg, n = 6
# [4] = male, Sprague-Dawley, rat plasma, n = 6
# [5] = rat plasma, n = 6, listed as isoquercitrin
Compound,plasma concentration after 15 minutes of intragastric administration ([1]; rat plasma),"Measured concentration, room temperature for 4h ([2]; spiked 2 ng/mL) [ng/mL]","Measured concentration, three freeze-thaw ([2]; spiked 2 ng/mL) [ng/mL]","Measured concentration, −70°C for 21 days ([2]; spiked 2 ng/mL) [ng/mL]","Measured concentration, room temperature for 4h ([2]; spiked 25 ng/mL) [ng/mL]","Measured concentration, three freeze-thaw ([2]; spiked 25 ng/mL) [ng/mL]","Measured concentration, −70°C for 21 days ([2]; spiked 25 ng/mL) [ng/mL]","Measured concentration, room temperature for 4h ([2]; spiked 250 ng/mL) [ng/mL]","Measured concentration, three freeze-thaw ([2]; spiked 250 ng/mL) [ng/mL]","Measured concentration, −70°C for 21 days ([2]; spiked 250 ng/mL) [ng/mL]","Measured concentration, autosampler for 12h ([2]; spiked 2 ng/mL) [ng/mL]","Measured concentration, autosampler for 12h ([2]; spiked 25 ng/mL) [ng/mL]","Measured concentration, autosampler for 12h ([2]; spiked 250 ng/mL) [ng/mL]","C max ([1]; rat plasma, n = 6)","t 1/2 ([1]; rat plasma, n = 6) [h]",further results
O=c1c(O)c(-c2ccc(O)cc2)oc2cc(O)cc(O)c12 [Kaempferol],lower than the LLOQ,2.2 ± 0.2,2.0 ± 0.2,2.0 ± 0.1,24.8 ± 0.3,26.2 ± 1.6,25.7 ± 0.8,247.5 ± 6.3,252.6 ± 7.5,257.2 ± 6.4,2.1 ± 0.2,25.4 ± 2.5,254.0 ± 4.9,–,–,–
O=c1cc(-c2ccc(O)c(O)c2)oc2cc(O)cc(O)c12 [Luteolin],lower than the LLOQ,2.2 ± 0.1,2.0 ± 0.1,2.0 ± 0.1,26.5 ± 0.5,26.8 ± 1.6,27.4 ± 0.9,256.7 ± 11.5,261.1 ± 8.2,257.6 ± 5.1,2.1 ± 0.1,25.6 ± 1.0,244.9 ± 6.3,–,–,–
O=c1c(O)c(-c2ccc(O)c(O)c2)oc2cc(O)cc(O)c12 [Quercetin],lower than the LLOQ,2.2 ± 0.1,2.0 ± 0.1,1.9 ± 0.1,26.2 ± 0.7,27.3 ± 0.6,25.6 ± 0.9,254.9 ± 11.8,253.2 ± 5.0,260.0 ± 6.2,2.3 ± 0.1,26.6 ± 0.7,245.3 ± 11.6,–,–,–
C[C@@H]1O[C@@H](Oc2c(-c3ccc(O)c(O)c3)oc3cc(O)cc(O)c3c2=O)[C@H](O)[C@H](O)[C@H]1O [Quercitrin],lower than the LLOQ,2.1 ± 0.1,2.3 ± 0.1,2.0 ± 0.1,26.3 ± 0.7,26.9 ± 1.5,26.5 ± 0.5,252.5 ± 9.1,261.4 ± 10.3,247.9 ± 5.3,2.1 ± 0.1,26.4 ± 0.9,253.1 ± 4.7,–,–,–
C[C@@H]1O[C@@H](OC[C@H]2O[C@@H](Oc3c(-c4ccc(O)c(O)c4)oc4cc(O)cc(O)c4c3=O)[C@H](O)[C@@H](O)[C@@H]2O)[C@H](O)[C@H](O)[C@H]1O [Rutin],–,–,–,–,–,–,–,–,–,–,–,–,–,higher than that of other components,7.70 ± 0.90,"Tmax [1, 3]: 10 ± 0.03 h; half-life [1, 3]: > 7.5 h; AUC(0-inf) [1, 4]: 4790 ± 2240 ng·h/mL; Cmax [1, 4]: 158 ± 84.1 ng/mL; AUC ([1]; male, Sprague-Dawley, rat plasma, n = 6, read-out: AUC(0-tn)): 4460 ± 2270 ng·h/mL; Measured concentration, room temperature for 4h ([2]; spiked 4 ng/mL): 3.9 ± 0.2 ng/mL; Measured concentration, three freeze-thaw ([2]; spiked 4 ng/mL): 4.0 ± 0.1 ng/mL; Measured concentration, −70°C for 21 days ([2]; spiked 4 ng/mL): 4.0 ± 0.1 ng/mL; Measured concentration, room temperature for 4h ([2]; spiked 50 ng/mL): 56.3 ± 2.3 ng/mL; Measured concentration, three freeze-thaw ([2]; spiked 50 ng/mL): 57.7 ± 1.0 ng/mL; Measured concentration, −70°C for 21 days ([2]; spiked 50 ng/mL): 52.7 ± 3.9 ng/mL; Measured concentration, room temperature for 4h ([2]; spiked 500 ng/mL): 505.7 ± 13.0 ng/mL; Measured concentration, three freeze-thaw ([2]; spiked 500 ng/mL): 513.1 ± 7.4 ng/mL; Measured concentration, −70°C for 21 days ([2]; spiked 500 ng/mL): 494.4 ± 8.8 ng/mL; Measured concentration, autosampler for 12h ([2]; spiked 4 ng/mL): 4.0 ± 0.2 ng/mL; Measured concentration, autosampler for 12h ([2]; spiked 50 ng/mL): 49.8 ± 2.7 ng/mL; Measured concentration, autosampler for 12h ([2]; spiked 500 ng/mL): 489.3 ± 14.2 ng/mL"
Isoquercitrin,–,1.8 ± 0.2,2.1 ± 0.1,1.9 ± 0.1,22.8 ± 1.4,26.2 ± 1.8,25.9 ± 1.8,247.2 ± 14.7,248.9 ± 5.1,263.6 ± 10.2,1.9 ± 0.1,24.0 ± 0.5,238.3 ± 7.2,52.61 ± 7.55 ng/mL,0.49 ± 0.05,"AUC(0-tn) ([1]; rat plasma, n = 6): 838.79 ± 518.04 ng·h/mL; AUC(0-∞) ([1]; rat plasma, n = 6): 949.49 ± 594.15 ng·h/mL; T max ([1]; rat plasma, n = 6): 0.21 ± 0.07 h; T max [1, 5]: less than 1 h; t 1/2 [1, 5]: less than 1.5 h"
